Data as given in ChEMBL document CHEMBL2074443, “Association of tamoxifen biliary excretion rate with prior tamoxifen exposure and increased mdr1b expression” (Biochem Pharmacol, 2000).

Target: ATP-dependent translocase ABCB1 (Rattus norvegicus, UniProt P43245)
Assay: TP_TRANSPORTER: RT-PCR in vivo, liver of Lewis rat
Format: functional, organism-based

Sequence of ATP-dependent translocase ABCB1 (P43245 whole entry): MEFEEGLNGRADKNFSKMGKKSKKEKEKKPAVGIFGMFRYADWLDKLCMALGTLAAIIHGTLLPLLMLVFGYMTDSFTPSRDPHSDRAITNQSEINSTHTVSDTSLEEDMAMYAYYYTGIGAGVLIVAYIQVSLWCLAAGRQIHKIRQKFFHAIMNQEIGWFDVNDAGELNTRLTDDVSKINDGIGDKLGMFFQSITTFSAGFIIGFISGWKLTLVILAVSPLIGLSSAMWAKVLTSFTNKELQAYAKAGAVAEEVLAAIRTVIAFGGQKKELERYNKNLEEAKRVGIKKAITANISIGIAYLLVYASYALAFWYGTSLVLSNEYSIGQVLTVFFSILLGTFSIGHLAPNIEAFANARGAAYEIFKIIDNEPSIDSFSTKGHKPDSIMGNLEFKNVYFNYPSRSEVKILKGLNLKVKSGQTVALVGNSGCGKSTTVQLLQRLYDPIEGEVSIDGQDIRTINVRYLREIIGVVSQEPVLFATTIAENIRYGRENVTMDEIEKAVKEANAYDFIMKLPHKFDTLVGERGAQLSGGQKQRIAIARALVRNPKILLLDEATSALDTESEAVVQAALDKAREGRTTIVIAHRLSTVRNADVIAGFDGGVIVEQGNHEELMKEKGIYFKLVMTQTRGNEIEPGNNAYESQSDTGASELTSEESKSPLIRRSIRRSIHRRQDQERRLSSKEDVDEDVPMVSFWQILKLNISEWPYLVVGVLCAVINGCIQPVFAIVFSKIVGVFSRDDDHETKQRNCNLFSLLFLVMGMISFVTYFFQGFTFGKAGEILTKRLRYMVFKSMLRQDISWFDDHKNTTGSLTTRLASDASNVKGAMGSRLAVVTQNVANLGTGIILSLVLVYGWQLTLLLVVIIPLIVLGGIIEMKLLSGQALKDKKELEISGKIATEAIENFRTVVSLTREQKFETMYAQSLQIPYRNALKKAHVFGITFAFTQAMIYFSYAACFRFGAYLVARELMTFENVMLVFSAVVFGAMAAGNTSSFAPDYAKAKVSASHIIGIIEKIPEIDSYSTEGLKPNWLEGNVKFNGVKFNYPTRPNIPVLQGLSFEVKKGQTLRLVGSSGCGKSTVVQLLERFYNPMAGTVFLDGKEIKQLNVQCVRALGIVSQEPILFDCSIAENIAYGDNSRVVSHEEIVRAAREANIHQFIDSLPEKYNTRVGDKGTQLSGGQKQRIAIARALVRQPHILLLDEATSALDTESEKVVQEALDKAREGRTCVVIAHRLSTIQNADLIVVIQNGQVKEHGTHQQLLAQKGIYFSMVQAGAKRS

## CC/C(=C(\c1ccccc1)c1ccc(OCCN(C)C)cc1)c1ccccc1 [TAMOXIFEN]
  Activity: inducer [+]
